Assay results reported in PubChem BioAssay AID330 (DTP/NCI, 2004).
Where “and” joins values, the source holds several entries; their conditions need not be identical. Equal values may be shown once. Inconclusive results and toxic doses are left out.

System: P388 leukemia ip, CD2F1 mice, survival T/C
Test: NCI In Vivo Anticancer Drug Screen. Data for tumor model P388 Leukemia (intraperitoneal) in CD2F1 (CDF1) mice
Conditions: endpoint: median survival time, higher = longer survival
In short: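 Mice carrying the transplanted tumor received test compound or vehicle. Survival was recorded in each group, and the value is the treated-group measurement divided by that of the vehicle-treated control group.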

[1] = dose: 30.0 mg/kg/injection, schedule: Q01DX005 (ip), vehicle: saline with Tween-80
[2] = dose: 60.0 mg/kg/injection, schedule: Q01DX005 (ip), vehicle: saline with Tween-80
[3] = dose: 12.5 mg/kg/injection, schedule: Q01DX009 (ip), vehicle: saline with Tween-80
[4] = dose: 25.0 mg/kg/injection, schedule: Q01DX009 (ip), vehicle: saline with Tween-80
[5] = dose: 50.0 mg/kg/injection, schedule: Q01DX009 (ip), vehicle: saline with Tween-80
[6] = dose: 50.0 mg/kg/injection, schedule: Q01DX005 (ip), vehicle: saline with Tween-80
[7] = dose: 100.0 mg/kg/injection, schedule: Q01DX005 (ip), vehicle: saline with Tween-80
[8] = dose: 200.0 mg/kg/injection, schedule: Q01DX005 (ip), vehicle: saline with Tween-80
[9] = dose: 50.0 mg/kg/injection, schedule: Q01DX005 (ip), vehicle: saline
[10] = dose: 100.0 mg/kg/injection, schedule: Q01DX005 (ip), vehicle: saline
[11] = dose: 50.0 mg/kg/injection, schedule: Q01DX009 (ip), vehicle: saline
[12] = dose: 120.0 mg/kg/injection, schedule: Q01DX005 (ip), vehicle: saline with Tween-80
[13] = dose: 240.0 mg/kg/injection, schedule: Q01DX005 (ip), vehicle: saline with Tween-80
[14] = dose: 50.0 mg/kg/injection, schedule: Q01DX005 (ip), vehicle: Klucel (hydroxypropylcellulose) (HPC)
[15] = dose: 100.0 mg/kg/injection, schedule: Q01DX005 (ip), vehicle: Klucel (hydroxypropylcellulose) (HPC)

Oc1c(Cl)c2nc3ccccc3nc2c2ccccc12
T/C (dose: 15.0 mg/kg/injection, schedule: Q01DX005 (ip), vehicle: saline with Tween-80): 100 % of control
T/C [1]: 102 % of control
T/C [2]: 88 % of control and 98 % of control

CCN(CC)c1csc2c3ccccc3nc(C)[n+]12
T/C (dose: 100.0 mg/kg/injection, schedule: Q04DX003 (ip), vehicle: saline + Tween-80 + alcohol): 104 % of control
T/C (dose: 200.0 mg/kg/injection, schedule: Q04DX003 (ip), vehicle: saline + Tween-80 + alcohol): 94 % of control
T/C (dose: 400.0 mg/kg/injection, schedule: Q04DX003 (ip), vehicle: saline + Tween-80 + alcohol): 105 % of control

OCC1OC(n2cnc3c(=S)nc[nH]c32)CC1O (configuration not stated)
T/C (dose: 167.0 mg/kg/injection, schedule: Q01DX009 (ip), vehicle: saline with Tween-80): 100 % of control
T/C (dose: 267.0 mg/kg/injection, schedule: Q01DX009 (ip), vehicle: saline with Tween-80): 113 % of control

O=C1c2cc(Cl)ccc2-c2c(NC(=O)C(Cl)Cl)cc(Cl)cc21
T/C [3]: 95 % of control
T/C (dose: 25.0 mg/kg/injection, schedule: Q01DX009 (ip), vehicle: Klucel (hydroxypropylcellulose) (HPC)): 100 % of control
T/C [4]: 95 % of control
T/C (dose: 50.0 mg/kg/injection, schedule: Q01DX009 (ip), vehicle: Klucel (hydroxypropylcellulose) (HPC)): 88 % of control
T/C [5]: 100 % of control

CC1NC(C)c2c(ccc3ccccc23)O1 (configuration not stated)
T/C [6]: 100 % of control
T/C [7]: 100 % of control
T/C [8]: 97 % of control

O=C1C(Cl)=C(NCC2CCCN3CCCCC23)C(=O)c2ccccc21 (configuration not stated)
T/C [9]: 113 % of control
T/C [10]: 117 % of control

CN(C)/N=N/c1ccn[nH]1
T/C (dose: 3.12 mg/kg/injection, schedule: Q01DX005 (ip), vehicle: saline with Tween-80): 121 % of control
T/C (dose: 3.12 mg/kg/injection, schedule: Q01DX009 (ip), vehicle: saline with Tween-80): 104 % of control
T/C (dose: 3.13 mg/kg/injection, schedule: Q01DX009 (ip), vehicle: saline): 97 % of control
T/C (dose: 6.25 mg/kg/injection, schedule: Q01DX005 (ip), vehicle: saline with Tween-80): 121 % of control
T/C (dose: 6.25 mg/kg/injection, schedule: Q01DX009 (ip), vehicle: saline with Tween-80): 107 % of control
T/C (dose: 6.25 mg/kg/injection, schedule: Q01DX009 (ip), vehicle: saline): 87 % of control
T/C (dose: 12.5 mg/kg/injection, schedule: Q01DX005 (ip), vehicle: saline with Tween-80): 118 % of control
T/C (dose: 12.5 mg/kg/injection, schedule: Q01DX009 (ip), vehicle: saline): 92 % of control
T/C (dose: 25.0 mg/kg/injection, schedule: Q01DX005 (ip), vehicle: saline with Tween-80): 121 % of control
T/C [4]: 121 % of control
T/C (dose: 25.0 mg/kg/injection, schedule: Q01DX009 (ip), vehicle: saline): 113 % of control
T/C [5]: 122 % of control
T/C [11]: 101 % of control

CC1CCC/C=C/C2CC(O)CC2C(O)/C=C\C(=O)O1 (configuration not stated)
T/C (dose: 8.75 mg/kg/injection, schedule: Q01DX005 (ip), vehicle: Klucel (hydroxypropylcellulose) (HPC)): 101 % of control
T/C (dose: 17.5 mg/kg/injection, schedule: Q01DX005 (ip), vehicle: Klucel (hydroxypropylcellulose) (HPC)): 97 % of control
T/C (dose: 35.0 mg/kg/injection, schedule: Q01DX005 (ip), vehicle: Klucel (hydroxypropylcellulose) (HPC)): 93 % of control
T/C (dose: 70.0 mg/kg/injection, schedule: Q01DX005 (ip), vehicle: Klucel (hydroxypropylcellulose) (HPC)): 100 % of control

COc1ccc(C(OC)c2cc(C(C)(C)C)c(O)c(C(C)(C)C)c2)cc1 (configuration not stated)
T/C [6]: 102 % of control
T/C [7]: 109 % of control
T/C [8]: 112 % of control

CC(C)(C)C(=O)Oc1c2ccccc2cc2ccccc12
T/C [1]: 88 % of control
T/C [2]: 88 % of control and 89 % of control
T/C [12]: 86 % of control

C[C@]12CC[C@H](OC(=O)COc3ccc(N(CCCl)CCCl)cc3)C[C@@H]1CC[C@@H]1[C@@H]2CC[C@]2(C)NC(=O)CC[C@@H]12
T/C (dose: 2.0 mg/kg/injection, schedule: Q01DX009 (ip), vehicle: saline with Tween-80): 120 % of control
T/C (dose: 8.0 mg/kg/injection, schedule: Q01DX009 (ip), vehicle: saline with Tween-80): 151 % of control and 157 % of control and 192 % of control
T/C (dose: 16.0 mg/kg/injection, schedule: Q01DX009 (ip), vehicle: saline with Tween-80): 180 % of control and 184 % of control and 192 % of control
T/C (dose: 32.0 mg/kg/injection, schedule: Q01DX009 (ip), vehicle: saline with Tween-80): 107 % of control and 180 % of control and 217 % of control

O=C(CCC(=O)Nc1cccc([N+](=O)[O-])c1)CC(=O)c1ccc(Cl)cc1
T/C [2]: 96 % of control
T/C [12]: 105 % of control
T/C [13]: 96 % of control

BC(=O)O
T/C (dose: 25.0 mg/kg/injection, schedule: Q01DX005 (ip), vehicle: saline): 97 % of control
T/C [9]: 93 % of control
T/C [10]: 93 % of control
T/C (dose: 200.0 mg/kg/injection, schedule: Q01DX005 (ip), vehicle: saline): 106 % of control

CC(=O)c1ccc2c(c1)NC(=O)CC(C)N2 (configuration not stated)
T/C [14]: 99 % of control
T/C [15]: 99 % of control
T/C (dose: 200.0 mg/kg/injection, schedule: Q01DX005 (ip), vehicle: Klucel (hydroxypropylcellulose) (HPC)): 103 % of control

Cc1cc2c(=O)cc(-c3ccccc3)oc2c(C(=O)O)c1C
T/C [1]: 103 % of control
T/C [2]: 114 % of control and 118 % of control
T/C [13]: 161 % of control

COc1cc(/C=N/NC(=O)C(N)Cc2ccc(O)cc2)ccc1O (configuration not stated)
T/C [6]: 100 % of control
T/C [7]: 94 % of control
T/C [8]: 103 % of control

CC(C)CC(N)C(=O)NC(Cc1c[nH]c2ccccc12)C(N)=O (configuration not stated)
T/C [11]: 93 % of control
T/C (dose: 100.0 mg/kg/injection, schedule: Q01DX009 (ip), vehicle: saline): 98 % of control
T/C (dose: 200.0 mg/kg/injection, schedule: Q01DX009 (ip), vehicle: saline): 99 % of control

CCCCCCCCSCc1ccc(Nc2ccc(Nc3ccc(CSCCCCCCCC)cc3)cc2)cc1
T/C (dose: 50.0 mg/kg/injection, schedule: Q01DX006 (ip), vehicle: other): 102 % of control
T/C (dose: 50.0 mg/kg/injection, schedule: Q01DX009 (ip), vehicle: acetone): 101 % of control
T/C (dose: 100.0 mg/kg/injection, schedule: Q01DX006 (ip), vehicle: other): 116 % of control
T/C (dose: 100.0 mg/kg/injection, schedule: Q01DX009 (ip), vehicle: acetone): 107 % of control
T/C (dose: 200.0 mg/kg/injection, schedule: Q01DX006 (ip), vehicle: other): 117 % of control

CN(C)CN1CSC(=S)N(CN(C)C)C1
T/C (dose: 50.0 mg/kg/injection, schedule: Q01DX005 (ip), vehicle: distilled water + alcohol): 103 % of control
T/C (dose: 100.0 mg/kg/injection, schedule: Q01DX005 (ip), vehicle: distilled water + alcohol): 116 % of control
T/C (dose: 200.0 mg/kg/injection, schedule: Q01DX005 (ip), vehicle: distilled water + alcohol): 103 % of control

CCOC(=O)Nc1cc2c(c(N)n1)N=C(c1ccc(C)cc1C)CN2
T/C (dose: 5.0 mg/kg/injection, schedule: Q01DX005 (ip), vehicle: saline with Tween-80): 109 % of control
T/C (dose: 10.0 mg/kg/injection, schedule: Q01DX005 (ip), vehicle: saline with Tween-80): 115 % of control
T/C (dose: 20.0 mg/kg/injection, schedule: Q01DX005 (ip), vehicle: saline with Tween-80): 123 % of control

CCOC(=O)C1NC(=O)C(C)NC1=O (configuration not stated)
T/C (dose: 60.0 mg/kg/injection, schedule: Q01DX005 (ip), vehicle: Klucel (hydroxypropylcellulose) (HPC)): 103 % of control
T/C (dose: 120.0 mg/kg/injection, schedule: Q01DX005 (ip), vehicle: Klucel (hydroxypropylcellulose) (HPC)): 107 % of control
T/C (dose: 240.0 mg/kg/injection, schedule: Q01DX005 (ip), vehicle: Klucel (hydroxypropylcellulose) (HPC)): 100 % of control

CCN(CC)CCNc1ccc(C)c2sc3ccc(N)cc3c(=O)c12
T/C [3]: 120 % of control
T/C [4]: 103 % of control
T/C [5]: 124 % of control
T/C (dose: 100.0 mg/kg/injection, schedule: Q01DX009 (ip), vehicle: saline with Tween-80): 118 % of control

CC1=C(O)C(=O)C=C2C1=CC=C1[C@@]2(C)CCC2(C)[C@@H]3C[C@@H](C)C(=O)C[C@]3(C)CC[C@]12C (some centres not stated)
T/C (dose: 12.5 mg/kg/injection, schedule: Q01DX005 (ip), vehicle: Klucel (hydroxypropylcellulose) (HPC)): 109 % of control
T/C (dose: 25.0 mg/kg/injection, schedule: Q01DX005 (ip), vehicle: Klucel (hydroxypropylcellulose) (HPC)): 101 % of control
T/C [14]: 90 % of control
T/C [15]: 97 % of control
T/C (dose: 260.0 mg/kg/injection, schedule: Q01DX005 (ip), vehicle: Klucel (hydroxypropylcellulose) (HPC)): 97 % of control
